Source: ChEMBL document CHEMBL1151247, “Quinazolin-4-one derivatives from Streptomyces isolates” (J Nat Prod, 2004)
Active and inactive are the calls of the source.

Columns and labels:
Type in all cases: functional, organism-based
Staphylococcus aureus = assay: Antibacterial activity against Staphylococcus aureus
Chlorella sorokiniana = assay: Antialgal activity against Chlorella sorokiniana
Desmodesmus subspicatus = assay: Antialgal activity against Scenedesmus subspicatus
[1] = test system: Streptomyces viridochromogenes; assay: Antibacterial activity against Streptomyces viridochromogenes
Candida albicans = assay: Antifungal activity against Candida albicans
Rhizomucor miehei = assay: Antifungal activity against Mucor miehei
Escherichia coli = assay: Antibacterial activity against Escherichia coli
Chlorella vulgaris = assay: Antialgal activity against Chlorella vulgaris
Bacillus subtilis = assay: Antibacterial activity against Bacillus subtilis

Measured: Activity

C[C@@H](O)[C@@]1(C)NC(=O)c2ccccc2N1 (relative stereo)
inactive: Staphylococcus aureus | Chlorella sorokiniana | Desmodesmus subspicatus | [1] | Candida albicans | Rhizomucor miehei | Escherichia coli | Chlorella vulgaris | Bacillus subtilis

C[C@@H](O)[C@]1(C)NC(=O)c2ccccc2N1 (relative stereo)
inactive: Staphylococcus aureus | Chlorella sorokiniana | Desmodesmus subspicatus | [1] | Candida albicans | Rhizomucor miehei | Escherichia coli | Chlorella vulgaris | Bacillus subtilis
